The results in this text go back to patent publication US7990502B2, “Liquid-crystal display device” (Fujifilm Corporation, priority 2007, dated 2011).

A short description of this data set: log P value (octanol-water partition coefficient) of the compound capable of mending the humidity dependence. To be noted: octanol-water partition coefficient of the humidity-dependence mending compound used in the second retardation film. Format: physicochemical. The text has this:
Log P of the compound capable of mending the humidity dependence for use in the invention is preferably from 3 to 10, more preferably from 3 to 7. Using the compound capable of mending the humidity dependence having log P that falls within the above range may reduce the humidity dependence of Re not causing a face condition trouble such as bleeding out, etc.
The log P value means an octanol-water partition coefficient, and it may be determined according to the flask shaking method described in JIS (Japanese Industrial Standards) Z7260-107 (2000). In place of determining it through actual measurement, the octanol-water partition coefficient (log P value) may be estimated according to a computational chemical method or an experimental method. As the computational method, preferably employed are a Crippen's fragmentation method (J. Chem. Inf. Comput. Sci., 27, 21 (1987)), a Viswanadhan's fragmentation method (J. Chem. Inf. Comput. Sci., 29, 163 (1989)), a Broto's fragmentation method (Eur. J. Med. Chem.-Chim. Theor., 19, 71 (1984)). Particularly, the Crippen's fragmentation method (J. Chem. Inf. Comput. Sci., 27, 21 (1987)) is preferably employed. In case where the log P value of a certain compound differs depending on the measurement method or the computational method employed, the compound is preferably judged according to a Crippen's fragmentation method as to whether or not it could fall within the preferred range.
For `Cc1ccc(OC(=O)[C@H]2CC[C@H](C(=O)Oc3ccc(C)cc3C)CC2)c(C)c1` [Compound A-6], the logP (in general, a log measure of how a compound divides between an organic and an aqueous phase) was determined as 5.7.

Consider `CCCCCCCc1ccc(OC(=O)[C@H]2CC[C@H](C(=O)Oc3ccc(CCCCCCC)cc3)CC2)cc1` [D], for which the logP was found to be 11.

Turning to `CCc1ccc(OC(=O)[C@H]2CC[C@H](C(=O)Oc3ccc(CC)cc3)CC2)cc1` [Compound A-3], the logP stood at 5.8.

In turn, `O=C(Oc1ccccc1)[C@H]1CC[C@H](C(=O)Oc2ccccc2)CC1` [Compound A-1] returned a logP of 3.7.
